Reference: ChEMBL document CHEMBL5244216, “Pyrrole: An insight into recent pharmacological advances with structure activity relationship” (Eur J Med Chem, 2018)

Test system: Mycobacterium tuberculosis
Test: Antitubercular activity against Multidrug-resistant Mycobacterium tuberculosis H37Rv assessed as reduction in microbial growth by broth dilution method
Format: functional

For `NNC(=O)c1ccncc1` [ISONIAZID], the MIC was 12.5 µg/mL.

Work on `CCOc1cc(C2OC(c3ccc(-n4cccc4)cc3)=NN2C(C)=O)ccc1O` (stereo not given) yielded an MIC of 0.2 µg/mL.

`CO[C@H]1/C=C/O[C@@]2(C)Oc3c(C)c(O)c4c(O)c(c(/C=N/N5CCN(C)CC5)c(O)c4c3C2=O)NC(=O)/C(C)=C\C=C\[C@H](C)[C@H](O)[C@@H](C)[C@@H](O)[C@@H](C)[C@H](OC(C)=O)[C@@H]1C` [RIFAMPIN] was tested, and the MIC was 25 µg/mL.

`Cc1ccc(C)n1-c1ccc(C(=O)n2[nH]c(=O)c3ccccc3c2=O)cc1` was tested, and the MIC was 0.4 µg/mL.

For `CC[C@@H](CO)NCCN[C@@H](CC)CO` [ETHAMBUTOL], the MIC was 12.5 µg/mL.
